Assay results published in US12129490B2, “Methods for generating hepatocytes and cholangiocytes from pluripotent stem cells” (UNIVERSITY HEALTH NETWORK, priority 2018, dated 2024).
Several values for one entry are separate records, joined by “and”; a condition that tells them apart may be missing. Equal values may be shown once. One block for each compound: values may come before it.

Key:
[1] = system: smad2; conditions: versus SB431 542; cited from earlier work
[2] = system: human and mouse ESC; conditions: cited from earlier work
[3] = system: Notch pathway; test: Hepatoblast co-culture with OP9 in presence of Notch antagonist GSI; format: cell-based, human
Experimental: RT-qPCR-based expression analysis of ALB and CK19 in the hepatoblast-derived cells following co-culture with OP9 in media supplemented with HGF (20 ng/ml), EGF (50 ng/ml), and TGFβ1 (5 ng/ml) in the presence or absence of the gamma-secretase inhibitor (GSI), an antagonist of the Notch pathway. Cells were harvested and analyzed at days 30, 33, and 36 of culture.
FIG. 15B is an RT-qPCR based expression analysis of the Notch target genes HES1, HES5 and HEY1 in hepatoblast-derived cells following culture with or without OP9. Cells were assayed at day 36 of culture. […] This value was set as 1.
To investigate the differentiation of cholangiocyte-like cells, H9-derived day 27 hepatic progenitors were co-cultured with OP 9 cells (Notch signaling donor) in the presence of HGF 20 ng/ml and EGF 50 ng/ml. The H9-derived day 27 hepatic progenitors were derived as in Example 1. When the hepatic progenitor cells received Notch signaling activation from OP-9 cells, the albumin positive cells were completely diminished and turned into CK19 positive cells with an organized branching appearance (FIG. 10a, b).
(§1) To investigate the effect of Notch signaling on cholangiocyte development, we co-cultured the hepatoblast population (day 25) with OP9 stromal cells that are known to express different Notch ligands including Jagged-1^4,5. […] To overcome this problem, we generated 3D aggregates from the day 25 monolayer cells and cultured them on the OP9 stromal cells.
(FIG. 22) Aggregates derived from both lines generated branched structures consisting of CK19^+ALB cells following co-culture with the OP9 stromal cells. As observed with the H9-derived populations, the downregulation of ALB expression and the development of these structures were NOTCH dependent events.

[4] = system: Notch signaling; test: 3D gel culture of chimeric hepatoblast/OP9 aggregates in presence of GSI; format: cell-based, human; conditions: 3D collagen/Matrigel gel
Experimental: H9-derived day 25 hepatoblast were mixed (aggregated) with OP9 stromal cells at a ratio of 4:1, in low cluster culture dishes for 48 hours. The chimeric aggregates were embedded in a mixture of type 1 collagen (1.2 mg/ml) and Matrigel (40%) to establish a 3D gel culture. The cultures were maintained over 2 weeks in the media containing of HGF, EGF and TGFβ1 in the presence or absence of GSI.
FIG. 16C is an RT-qPCR based expression analyses of pooled structures that developed in the 3D gels. The cultures were harvested at day 44 and the cells analyzed for expression of genes indicative of the hepatocyte (ALB, AFP and CYP3A7) and cholangiocyte (CK19, Sox9 and CFTR) lineages.
To determine if the branching observed in the OP9 co-cultures is indicative of the initial stages of bile duct development, we next established a culture system to promote the growth of 3D cellular structures. With this approach, chimeric aggregates consisting of day 25 hESC-derived cells and OP9 stromal cells (GFP^+) were cultured in a media mixture consisting of 1.2 mg/ml collagen, 40% Matrigel and HGF, EGF and TGFβ1 (FIG. 23a). Within 2 weeks of culture in these conditions, the aggregates underwent dramatic morphological changes and formed either tubular structures, hollow cysts or a mixture of both (FIG. 16a,b). The cysts were the most abundant structures in these cultures (FIG. 16b). […] The cells in the ducts also expressed the Cystic fibrosis transmembrane conductance regulator (CFTR), a transmembrane channel that is first expressed in the adult biliary tract. As with ZO-1, the CFTR protein was detected predominantly on the apical side of the duct-like structure. Western blot analyses confirmed the presence of the protein in the population generated from the chimeric aggregates (FIG. 23D). […] The lack of hepatic markers, including ALB, AFP and CYP3A7 and the upregulation of expression the cholangiocyte markers CK19, SOX9 and CFTR in these structures was confirmed by RT-qPCR analyses (FIG. 16c). […]

[5] = system: day 44 aggregates; test: CYP expression in day 44 aggregates with Wnt and MEK/Erk inhibition plus cAMP agonist; format: cell-based, human; conditions: together with cAMP, relative to adult liver
[6] = target: T1, CYP1A2 (Homo sapiens, UniProt P05177); test: CYP1A2 activity, phenacetin metabolism by HPLC
T1 sequence (P05177 1-516): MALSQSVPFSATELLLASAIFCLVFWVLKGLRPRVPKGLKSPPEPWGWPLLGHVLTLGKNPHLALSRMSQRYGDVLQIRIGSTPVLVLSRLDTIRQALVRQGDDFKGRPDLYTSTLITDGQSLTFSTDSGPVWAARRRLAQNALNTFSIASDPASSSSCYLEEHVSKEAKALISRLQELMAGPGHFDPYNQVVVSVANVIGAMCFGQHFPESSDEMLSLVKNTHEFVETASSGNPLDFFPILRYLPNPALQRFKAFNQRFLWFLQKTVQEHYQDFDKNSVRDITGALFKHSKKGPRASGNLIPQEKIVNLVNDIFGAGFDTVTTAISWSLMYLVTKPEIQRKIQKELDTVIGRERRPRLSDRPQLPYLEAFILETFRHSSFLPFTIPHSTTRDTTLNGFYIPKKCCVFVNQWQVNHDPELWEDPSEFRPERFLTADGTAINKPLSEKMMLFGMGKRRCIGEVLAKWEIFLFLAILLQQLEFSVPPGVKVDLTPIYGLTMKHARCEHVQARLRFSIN

[7] = system: hPSC-derived hepatoblast aggregates; test: Growth factor addition to hepatoblast aggregates co-cultured on OP9 stroma; format: cell-based, human; conditions: for development of CK19+ clusters: OP9 co-culture
Source text: as §1

[8] = system: hepatic aggregates; test: Culture of hepatic aggregates at cAMP stage, HGF and OSM; format: cell-based, human
Experimental: The cell aggregates were cultured in HGF, Dex and OSM until day 32 at which point cAMP was added. […] In some experiments, HGF was also removed from the cultures when cAMP analog and/or cAMP agonist is added.

[9] = OP9 co-culture with HGF, EGF, TGFβ1

Compound: Cc1cccc(-c2nn(C(=S)Nc3ccccc3)cc2-c2ccnc3ccccc23)n1 [A83-01]
inhibition of smad2, relative potency [1]: more potent

Compound: O=C1Nc2cc(Br)ccc2/C1=C1/Nc2ccccc2/C1=N\O [BIO, 6-bromo-Indirubin-3′-Oxime]
pluripotency of ESC [2]: maintain pluripotency

expression of hepatocyte markers (ALB, AFP and CYP3A7) ([4]; day 44): increase
Compound: CC(C)C[C@H](NC(=O)[C@H](Cc1ccccc1)C[C@@H](O)[C@H](Cc1ccccc1)NC(=O)OC(C)(C)C)C(=O)N[C@@H](Cc1ccccc1)C(N)=O [GSI]
albumin and CK19 positive cells ([3]; 10 μM, H9-derived day 27 progenitors with OP9, HGF 20 ng/ml, EGF 50 ng/ml): albumin and CK19 positive cells were found
ALB expression [3, 9]: blocked the downregulation
development of branched structures [3, 9]: inhibited
proportion of CK19+ cells [3, 9]: reduced
increase in expression of Notch targets HES1, HES5 and HEY1 ([3]; nine days of culture on OP9): block
formation of duct-like structures and cysts [4]: prevented
expression of genes associated with cholangiocyte development (CK19, Sox9 and CFTR) ([4]; day 44): decrease

Compound: O=C(NOC[C@H](O)CO)c1ccc(F)c(F)c1Nc1ccc(I)cc1F [MEK/ErK inhibitor]
levels of CYP3A4 expression [5]: comparable to those found in the adult liver

increase in CYP1A2 activity on induction ([6]; 8-Br-cAMP-treated hESC-derived cells, induction 72 hours): 3.4 fold
inducibility of CYP1A2 activity ([6]; H9-derived cells): inducible
inducibility of CYP1A2 activity ([6]; cells not treated with 8-Br-cAMP): not inducible
inducible CYP1A2 activity ([6]; iPSC-derived cells): not detectable
induction of CYP1A2 activity ([6]; two independent primary hepatocyte samples): 18 fold and 9 fold
Compound: Cc1c(OCC(F)(F)F)ccnc1C[S+]([O-])c1nc2ccccc2[nH]1 (stereo not drawn) [lansoprazole]

Compound: HGF: hepatocyte growth factor
development of CK19+ clusters [7]: little effect
survival of aggregates ([8]; 10 ng/ml (reduced from 20 ng/ml) when cAMP was added): promote survival of the aggregates

Compound: OSM: Oncostatin M
induction of expression of Phase 1 CYP enzymes, in particular CYP 3A4 ([8]; OSM maintained): inhibitory effect

Compound: TGFβ1: transforming growth factor beta 1
development of CK19+ clusters [7]: increase in the size
cholangiocyte branching ([7]; hepatoblasts co-cultured with OP9): promotes cholangiocyte branching
